Data: patent publication US11964943B2, “3,5-diarylidenyl-n-substituted-piperid-4-one-derived inhibitors of Stat3 pathway activity and uses thereof” (priority 2017, dated 2024)
“Also recorded” adds a separate entry of the source.

Legend:
pStat3 = experiment: Immunohistochemistry of pStat3 in xenograft tissue sections; assay type: in vivo, mice; conditions: A549, A431, DU145 and HCT116-oxaliplatin resistant xenografts, single dose 30 mg/kg, 24 h
Description: Mice were treated as described in the survival experiments but were sacrificed 24 h post administration of the compound or vehicle, intraperitoneally.

DU145 cells [1] = experiment: SRB growth inhibition assay for radiosensitization; assay type: cell-based; conditions: 18 h pretreatment, then irradiation
Description: Stock cultures were trypsinised and 2500 cells were seeded into each well of 96-well, flat-bottomed microtiter plates, in a volume of 200 μl and left to adhere overnight at 37° C. The desired concentrations of IE-8 or curcumin were prepared in culture medium immediately before use. Medium in wells was removed and 200 μl of drug medium mixture was added. Three replicates were used for each drug concentration. One solvent control lane was included in each experiment. Plates were incubated for 18 h at 37° C. At the end of the drug treatment, the media was replaced with 200 μl of fresh media. Subsequently the plates were irradiated at 0, 2, 4 and 6 Gy. The plates were incubated for three days in a humidified incubator at 37° C. with 5% CO2. The media in the wells was removed and 100 μl of ice-cold 10% (wt/vol) trichloroethanoic acid (TCA) was added per well, to fix the cells. […] Plates were left at room temperature for 20 minutes, and the optical density (OD) at 540 nm was determined using a microplate reader (Thermo). Growth inhibition was expressed as the fraction of control A540 (surviving fraction) and calculated from the following equation; fraction of control A540=OD of untreated control at each radiation dose. The mean surviving fraction for each drug concentration for each radiation dose was calculated.

DU145 cells [2] = experiment: Colony formation assay for radiosensitization; assay type: cell-based
Description: The X-Ray radiation facility provided an AGO HS MP-1 X-ray machine with a Varian ND1-321 tube used to produce X rays at a dose rate of 1 Gy/min.
Stock cultures were trypsinised and 2.5×10^4 cells were seeded into 6-well plates and incubated at 37° C. for 24-48 hours. When cells reached […] confluency, they were treated with IE-8 (0, 0.8, 1, and 1.2 μM) for 18 hours. After drug treatment, cells were harvested by trypsinisation and re-seeded. […] Plates were then incubated for 14 days at 37° C. with 5% CO2. After this incubation, plates were washed with tap water and fixed. Colonies were stained for 30 minutes at room temperature with 1% (w/v) crystal violet (Sigma-Aldrich) in 10% ethanol, and subsequently dried overnight at room temperature. Colonies consisting of at least 50 cells were counted for each treatment. The number of colonies in unirradiated wells was used to determine the plating efficiency (number of colonies/number of cells seeded). The following formula was used to calculate survival fraction: […]

[3] = system: HT1080 fibrosarcoma spheroids; experiment: Spheroid invasion assay; assay type: cell-based; conditions: 3 μM, 90 h observation
Description: Multicellular spheroids from HT-1080 cells were grown for 4 days in RPMI 1640 medium in 96-well plates (Nunclon Sphera, Thermo Fisher) and their size was measured with an inverted microscope (Olympus CKX41, 4× objective) and Cell^F software. […] Growth factor reduced Matrigel (Becton Dickinson) was thawed on ice and diluted in 4° C. cold medium to a final concentration of 300 μg/mL with or without IE-8. One hundred fifty microliter of these solutions were added to the wells containing spheroids in 50 μL medium. The plate was incubated in a humidified atmosphere with 5% CO2 in air at 37° C. Both untreated and treated spheroids were monitored simultaneously with a JuliBr live cell analyzer (NanoEntek) for 90 h to visualize spheroid invasion, and every hour the relative cross-sectional area of the spheroids was measured.

Question: With `COc1cc(/C=C2\CN(c3ccccc3)C/C(=C\c3cc(OC)c(OC)c(OC)c3)C2=O)cc(OC)c1OC` [IE-8, 3,5-Di(3,4,5-trimethoxybenzylidene)-1-phenylpiperidin-4-one] as the compound, how does the “pStat3 levels in xenograft tissue sections” value (pStat3) read?
Answer: The value was “marked and in many instances significant downregulation; also recorded: downregulation of the pStat3 levels in vivo, was achieved”.

Question: What about the “radiosensitization (cell survival, SRB)” value (DU145 cells [1]) of the same compound?
Answer: The value was “more efficient at reducing cell survival”.

Question: And the “colony formation following irradiation” value (DU145 cells [2]; 18 h pretreatment)?
Answer: The value was “dose-dependent decrease in colony formation”.

Question: And the Survival fraction (DU145 cells [2]; IE-8 0.8 μM 18 h pretreatment, 0 Gy)?
Answer: The Survival fraction was 1.000.

Question: And the Survival fraction (DU145 cells [2]; IE-8 0.8 μM 18 h pretreatment, 2 Gy)?
Answer: Its Survival fraction is 0.451.

Question: What about the Survival fraction (DU145 cells [2]; IE-8 0.8 μM 18 h pretreatment, 4 Gy) of the same compound?
Answer: Its Survival fraction is 0.147.

Question: What about the Survival fraction (DU145 cells [2]; IE-8 0.8 μM 18 h pretreatment, 6 Gy) of the same compound?
Answer: Its Survival fraction is 0.047.

Question: What about the Survival fraction (DU145 cells [2]; IE-8 0.8 μM 18 h pretreatment, 8 Gy) of the same compound?
Answer: The Survival fraction was 0.013.

Question: What about the Survival fraction (DU145 cells [2]; IE-8 1 μM 18 h pretreatment, 0 Gy) of the same compound?
Answer: Its Survival fraction is 1.000.

Question: And the Survival fraction (DU145 cells [2]; IE-8 1 μM 18 h pretreatment, 2 Gy)?
Answer: Its Survival fraction is 0.440.

Question: What about the Survival fraction (DU145 cells [2]; IE-8 1 μM 18 h pretreatment, 4 Gy) of the same compound?
Answer: The Survival fraction was 0.134.

Question: And the Survival fraction (DU145 cells [2]; IE-8 1 μM 18 h pretreatment, 6 Gy)?
Answer: The Survival fraction was 0.026.

Question: And the Survival fraction (DU145 cells [2]; IE-8 1 μM 18 h pretreatment, 8 Gy)?
Answer: The Survival fraction was 0.006.

Question: What about the Survival fraction (DU145 cells [2]; IE-8 1.2 μM 18 h pretreatment, 0 Gy) of the same compound?
Answer: The Survival fraction was 1.000.

Question: And the Survival fraction (DU145 cells [2]; IE-8 1.2 μM 18 h pretreatment, 2 Gy)?
Answer: The Survival fraction was 0.349.

Question: And the Survival fraction (DU145 cells [2]; IE-8 1.2 μM 18 h pretreatment, 4 Gy)?
Answer: Its Survival fraction is 0.077.

Question: And the Survival fraction (DU145 cells [2]; IE-8 1.2 μM 18 h pretreatment, 6 Gy)?
Answer: The Survival fraction was 0.014.

Question: What about the Survival fraction (DU145 cells [2]; IE-8 1.2 μM 18 h pretreatment, 8 Gy) of the same compound?
Answer: The Survival fraction was 0.002.

Question: What about the “rate of confluence (invasion) of spheroids in matrigel” value [3] of the same compound?
Answer: Its value is “markedly reduced and also delayed”.
